Measured values as given in US20240287074A1, “SALTS AND CRYSTALS” (Kinoxis Therapeutics Pty Ltd, priority 2020, published 2024).
Counter-ions that a name gives are not always drawn. Like-named read-outs stand apart in the source and are kept apart here. Marks after values point to notes of the source that are not given here.

Experiments:
[1] = Dynamic / gravimetric vapour sorption (DVS/GVS) hygroscopicity; type: physicochemical
Method: Approximately, 10-20 mg of sample was placed into a mesh vapour sorption balance pan and loaded into a DVS Intrinsic dynamic vapour sorption balance by Surface Measurement Systems. The sample was subjected to a ramping profile from 40-90% relative humidity (RH) at 10% increments, maintaining the sample at each step until a stable weight had been achieved (dm/dt 0.004%, minimum step length 30 minutes, maximum step length 500 minutes) at 25° C. After completion of the sorption cycle, the sample was dried using the same procedure to 0% RH and then a second sorption cycle back to 40% RH. Two cycles were performed. The weight change during the sorption/desorption cycles were plotted, allowing for the hygroscopic nature of the sample to be determined. XRPD analysis was then carried out on any solid retained.
Approximately 10-20 mg of sample was placed into a mesh vapour sorption balance pan and loaded into an IGASorp Moisture Sorption Analyser balance by Hiden Analytical. The sample was subjected to a ramping profile from 40-90% relative humidity (RH) at 10% increments, maintaining the sample at each step until a stable weight had been achieved (98% step completion, minimum step length 30 minutes, maximum step length 60 minutes) at 25° C. After completion of the sorption cycle, the sample was dried using the same procedure to 0% RH, and finally taken back to the starting point of 40% RH. Two cycles were performed. The weight change during the sorption/desorption cycles were plotted, allowing for the hygroscopic nature of the sample to be determined.

[2] = Oral pharmacokinetics in rats; type: in vivo; conditions: for Plasma AUC0-inf/Dose / Plasma Cmax/Dose: dose-normalised; for Plasma AUC0-inf/Dose / Plasma Cmax/Dose / BA % / % Dose in urine: male Sprague Dawley rats; for Plasma AUC0-inf/Dose / Plasma Cmax/Dose / % Dose in urine: dihydrochloride; for BA % / % Dose in urine / Cmax / half-life / AUC(0-inf) / Tmax: 5 mg/kg target dose (freebase equivalent), 5 mg/kg; for BA % / Cmax / half-life / AUC(0-inf) / Tmax: mean ± SD; for BA %: n = 3, dihydrochloride; for % Dose in urine: urine up to 24 h; for Cmax / half-life / AUC(0-inf) / Tmax: male, Sprague Dawley, rat, plasma, po; for Cmax: n = 3; for half-life: n = 3, read-out: Apparent t1/2 (converted); for AUC(0-inf): n = 3, read-out: Plasma AUC0-inf; for Tmax: n = 3, read-out: Tmax
Method: N=3 rats were run in each of the four conditions: • (1) Di-HCL salt in saline • (2) Di-HCL salt in methocel • (3) Phosphate form 1 in saline • (4) Phosphate form 1 in methocel
On the day of dosing the solid compounds were dissolved in either Saline (0.9%) or 0.5% hydroxypropyl methylcellulose (Methocel E3 Premium LV) in Milli-Q water. The formulations were then thoroughly vortexed to produce colourless solutions.
Overnight-fasted rats with adlibitum access to water were administered their dose of the various forms of the compound of the invention via oral gavage (PO) at a dose volume of 3 ml/kg and a dose of 5 mg/kg freebase equivalent. Food access was re-instated 4 hours (h) post-dose. Samples of arterial blood were collected up to 24 h post-dose. After collection, samples were centrifuged, plasma was removed and stored frozen at −80° C. before being analysed by LC-MS. Urine samples were collected at pre, 0-4 h, 4-7 h and 7-24 h post-dose and were analysed by LC-MS following extraction.

[3] = test system: C57BL/6 mouse model of opioid withdrawal; assay: Naloxone precipitated oxycodone withdrawal-induced jumping; type: in vivo; conditions: 7.3 mg/kg FBE i.p., C57BL/6 mice, 30 min session, vs OXY_VEH
Method: Two cohorts of adult male C57BL/6 mice were run assessing the effects of 7.3 mg/kg freebase equivalent (FBE) IP of the compound of the invention in the dihydrochloride salt form (CMPD1-2HCL) and the phosphate form 1 (CMPD1-PO4) on naloxone precipitated withdrawal-induced jumping.
The first cohort of mice (N=30) were split into the following conditions: • (1) Vehicle, 0 mg/kg (n=10); • (2) oxycodone, 0 mg/kg compound of the invention FBE in 2HCL salt form (n=10); • (3) oxycodone, 7.3 mg/kg compound of the invention FBE in 2HCL salt form (n=10).
The second cohort of mice (N=24) were split into the following conditions: • (1) Vehicle, 0 mg/kg (n=8); • (2) oxycodone, 0 mg/kg compound of the invention FBE in PO4 salt form (n=8); • (3) oxycodone, 7.3 mg/kg compound of the invention FBE in PO4 salt form (n=8).
Mice in the oxycodone conditions received i.p. injections of oxycodone for 5 days according to the schedule and doses set out in Table 8. The morning and afternoon doses were separated by 7 h. Mice in the vehicle condition received injections of vehicle saline instead of oxycodone. […]
Testing involved placing mice individually into a 20 (I)×20 (w)×30 (h) cm arena for 30 min. […] Number of jumps were scored from the videos by an experienced experimenter blind to conditions.
Data were analysed by SPSS using oneway ANOVA and planned contrasts.

[4] = biological target: T1, orthosteric oxytocin receptor binding sites (Homo sapiens, UniProt P30559); conditions: cited from earlier work
T1 sequence (P30559 1-389): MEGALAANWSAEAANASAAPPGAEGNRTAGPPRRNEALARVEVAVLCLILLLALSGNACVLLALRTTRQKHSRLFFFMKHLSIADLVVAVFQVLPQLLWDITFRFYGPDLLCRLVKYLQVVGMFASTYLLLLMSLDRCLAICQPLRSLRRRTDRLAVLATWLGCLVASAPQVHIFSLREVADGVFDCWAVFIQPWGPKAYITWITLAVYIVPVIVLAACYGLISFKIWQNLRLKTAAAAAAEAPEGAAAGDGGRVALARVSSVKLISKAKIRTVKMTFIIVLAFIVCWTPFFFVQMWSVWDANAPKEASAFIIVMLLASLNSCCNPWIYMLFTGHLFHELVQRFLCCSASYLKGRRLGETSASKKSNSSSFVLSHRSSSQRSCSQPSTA

[5] = test system: orthosteric vasopressin receptor binding sites; conditions: cited from earlier work

Cn1ncc2c1Nc1ccccc1NC2 [Di-hydrochloride salt, 1-Methyl-1,4,5,10-tetrahydropyrazolo[3,4-b][1,5]benzodiazepine dihydrochloride]
relative humidity above which form change is indicated by DVS [1]: above 60 % RH | relative humidity below which the weight change is reversible (DVS) [1]: below 30 % RH | hygroscopicity ([1]; DVS, 25° C., dihydrochloride): high hygroscopicity | Plasma AUC0-inf/Dose ([2]; Methocel): 0.91 ± 0.12 (μg*h/mL)/(mg/kg) | Plasma Cmax/Dose ([2]; Methocel): 0.40 ± 0.02 (μg/mL)/(mg/kg) | Plasma AUC0-inf/Dose ([2]; Saline): 1.14 ± 0.12 (μg*h/mL)/(mg/kg) | Plasma Cmax/Dose ([2]; Saline): 0.61 ± 0.29 (μg/mL)/(mg/kg) | BA % ([2]; Methocel): 98.9 ± 13^b % | % Dose in urine ([2]; Methocel): 0.224 ± 0.14% | BA % ([2]; Saline): 124 ± 13% | % Dose in urine ([2]; Saline): 0.184 ± 0.059% | Cmax ([2]; Methocel): 1800 ± 110 ng/mL | half-life ([2]; Methocel): 40.8 ± 12 min | AUC(0-inf) ([2]; Methocel): 4100 ± 520 ng·h/mL | Tmax ([2]; Methocel): 19.8 ± 6 min | Cmax ([2]; Saline): 2930 ± 1360 ng/mL | half-life ([2]; Saline): 41.4 ± 6 min | AUC(0-inf) ([2]; Saline): 5460 ± 540 ng·h/mL | Tmax ([2]; Saline): 45 ± 24 min | oxycodone withdrawal-induced jumping [3]: significantly inhibited | binding affinity for the orthosteric oxytocin receptor binding sites [4]: without demonstrating significant binding affinity | binding affinity for the orthosteric vasopressin receptor binding sites [5]: without demonstrating significant binding affinity
